# Read-outs that look alike come from different tables or passages of the source.
# Columns and labels:
# Raw264.7 cells = assay: Cell number (CellNb) from image analysis of the phenotypic cell-based assay
# [1] = tested on: M. tuberculosis H37Rv-GFP; assay: microbe, parasite or virus in culture; type: cell-based; settings: Mycobacterium tuberculosis; for inhibition at 0.2 µM: read-out: QUM Confirm % Inhibition 0.2 uM; for inhibition at 2 µM: read-out: QUM Confirm % Inhibition 2 uM; for inhibition at 20 µM: read-out: QUM Confirm % Inhibition 20 uM
# [2] = tested on: M. tuberculosis H37Rv-GFP; assay: microbe, parasite or virus in culture; type: cell-based, Mycobacterium tuberculosis; settings: for inhibition at 0.2 µM / inhibition at 2 µM / inhibition at 20 µM: Macrophage; for inhibition at 0.2 µM: read-out: QIM Confirm % Inhibition 0.2 uM; for inhibition at 2 µM: read-out: QIM Confirm % Inhibition 2 uM
# [3] = Mycobacterium tuberculosis, H37RV, confirmation, 0.2 uM, intracellular
# [4] = Mycobacterium tuberculosis, H37RV, confirmation, 2 uM, intracellular
# [5] = Mycobacterium tuberculosis, H37RV, confirmation, 20 uM, read-out: QIM Confirm % Inhibition 20 uM
# [6] = Mycobacterium tuberculosis, H37RV, primary screen, 20 μM, read-out: Primary QIM % Inhibition
# [7] = Mycobacterium tuberculosis, H37RV, confirmation, 20 uM, intracellular, read-out: QIM Confirm % Inhibition 20 uM
# [8] = Mycobacterium tuberculosis, H37RV, primary screen, 20 μM, intracellular, read-out: Primary QIM % Inhibition
# [9] = Mycobacterium tuberculosis, H37RV, read-out: Primary QIM % Inhibition
# [10] = Mycobacterium tuberculosis, H37RV
# [11] = Mycobacterium tuberculosis, H37RV, read-out: QIM Confirm % Inhibition 20 uM
Compound,"QIM Confirm CellNb 0.2 uM (Raw264.7 cells; confirmation, 0.2 uM)","QIM Confirm CellNb 2 uM (Raw264.7 cells; confirmation, 2 uM)","QIM Confirm CellNb 20 uM (Raw264.7 cells; confirmation, 20 uM)","Primary QIM CellNb (Raw264.7 cells; primary screen, 20 μM)",inhibition at 0.2 µM [1] [%],inhibition at 2 µM [1] [%],inhibition at 20 µM [1] [%],"inhibition at 0.2 µM [2, 3] [%]","inhibition at 2 µM [2, 4] [%]","inhibition at 20 µM [2, 5] [%]","inhibition at 20 µM [2, 6] [%]",further results
O=C(N/N=C/c1cc(Br)cc(Br)c1O)c1ccncc1 [IPK 000 009 33],264.8,475.9,333.6,314.5,31.8,44.5,69.8,8.5,92.5,56.9,79.9,–
O=C(Oc1cccc2cccnc12)c1cccc([N+](=O)[O-])c1 [IPK 000 018 66],258.1,296.6,130.4,63.3,39.3,72,99.6,8.6,0.4,16.7,-26.8,–
CC1=NN(C(=O)c2ccncc2)C(O)(C(F)(F)F)C1 (stereo not shown) [IPK 000 009 78],325.5,414.4,376.1,454.5,30,61.1,100,17,50.2,88.6,103,–
[C-]#[N+]c1ccc(Cl)cc1C(C)S(=O)(=O)c1ccc(C)cc1 (stereo not shown) [IPK 000 126 33],–,126.8,–,123.3,–,–,–,–,–,–,–,"inhibition at 20 µM [2, 7]: 73.4%; inhibition at 20 µM [2, 8]: 80.7%"
CC(C)(C)C(=O)Nc1ccccc1C(=O)N1CCOCC1 [IPK 000 021 87],305.3,403.4,609.0,405.0,49.1,42.9,41.9,15.4,29.8,96.5,90.2,–
CCOC(=O)c1c(CSc2ccccc2)n(Cc2ccccc2)c2ccc(O)c(CN(C)C)c12 [IPK 000 016 05],–,–,–,–,36.6,42.5,70,–,–,–,–,"Primary QIM CellNb (Raw264.7 cells): 192.0; QIM Confirm CellNb 0.2 uM (Raw264.7 cells): 206.8; QIM Confirm CellNb 2 uM (Raw264.7 cells): 148.9; QIM Confirm CellNb 20 uM (Raw264.7 cells): 282.0; inhibition at 20 µM [2, 9]: 67.9%; inhibition at 0.2 µM [2, 10]: -2.2%; inhibition at 2 µM [2, 10]: 0.8%; inhibition at 20 µM [2, 11]: 43.4%"
C=CCN1C(=O)/C(=N/NC(=O)c2ccc(F)cc2)c2ccccc21 [IPK 000 104 67],–,–,–,183.0,–,–,–,–,–,73.7,33.8,–
Cc1ccc2ccc3ccc(C)nc3c2n1 [IPK 000 002 03],241.4,92.0,148.0,77.0,32.5,52.4,69.7,-2,7.7,-12.3,-28.5,–
O=C(N/N=C/c1ccccc1F)c1ccncc1 [IPK 000 013 71],476.5,544.3,377.4,358.8,51.6,92.2,68.4,86.3,105,97.5,103,–
CNCCCN1c2ccccc2CCc2ccccc21 [IPK 000 224 59],–,–,–,60.3,–,–,–,–,–,–,–,"inhibition at 20 µM [2, 7]: 86.2%; inhibition at 20 µM [2, 8]: 72.9%"
CCCCc1ccc(/C=N/NC(=O)c2ccncc2)cc1 [IPK 000 013 69],405.8,532.1,443.3,327.5,51.2,79.1,62.4,68.9,105,58.6,91.3,–
CN(C)c1ccc(/N=N/c2ccccc2C(=O)O)cc1 [IPK 000 052 75],–,–,–,48.8,–,–,–,–,–,10.1,-77.4,–
N#Cc1ccccc1NC(=O)CSc1nc2ccccc2s1 [IPK 000 018 97],288.5,299.8,553.9,314.0,40.5,33.9,36.1,7.3,20,83.8,76.7,–
O=C(O)c1cn(C2CC2)c2cc(N3CCNCC3)c(F)cc2c1=O [IPK 000 117 14],–,–,–,546.0,–,–,–,–,–,–,–,"inhibition at 20 µM [2, 9]: 69.1%; inhibition at 20 µM [2, 11]: 66.5%"
"NNC(=O)c1ccncc1 [INH, isoniazid, reference compound]",–,–,–,–,–,–,–,–,–,–,–,"MIC ([1]; read-out: minimal inhibitory concentration (MIC)): 0.1 µg/mL; minimal inhibitory concentration (MIC) [2]: 0.16 ± 0.05 µg/mL; MIC ([2]; Mycobacterium tuberculosis, H37RV, 120 h, read-out: minimal inhibitory concentration (MIC)): 0.1 µg/mL"
CCCCOC(=O)C1(O)c2ccccc2-c2ccccc21 [IPK 000 105 56],–,–,–,225.0,–,–,–,–,–,86.9,65.7,–
CC(C)(C)c1cc(C(=O)N/N=C2\C(=O)N(Cc3ccccc3)c3ccccc32)[nH]n1 [IPK 000 138 12],–,–,–,480.8,–,–,–,–,–,–,–,"inhibition at 20 µM [2, 7]: 105%; inhibition at 20 µM [2, 8]: 96.8%"
CCOC(=O)C1(O)c2ccccc2-c2ccccc21 [IPK 000 105 55],–,–,–,181.3,–,–,–,–,–,91.5,89.3,–
O=C([O-])Cc1ccccc1Nc1c(Cl)cccc1Cl.[Na+] [IPK 000 117 05],–,–,–,656.5,–,–,–,–,–,80.5,79.8,–
